Data taken from US11406694B2, “Vaccine comprising drug and parasite administration” (priority 2016, dated 2022).

Columns and labels:
Plasmodium parasite = assay: Blood-stage infection of mice under daily doxycycline treatment (course of infection during infection/drug cure); assay type: in vivo
Description: The work described herein relates to giving mice and humans a blood stage malaria infection and daily doses of oral (human) or intraperitoneal (mice) doxycycline as a delayed death agent. This cycle can be repeated and we have given mice 1 or 3 cycles of infection/drug cure (IDC) with doxycycline.
Mice (BALB/c or C57/B6) received varying doses of Plasmodium parasite (10^5-10^7 trophozoite parasitised red blood cells; pRBC), administered via intravenous injection (200 μL). Mice were subsequently started on doxycycline treatment (doxycycline hydrate (Sigma) dissolved in 1× phosphate buffered saline, 50 mg/kg administered in ˜100 μL volume via intraperitoneal injection) approximately 1-2 hours post infection. Mice received treatment every day for 7 days. Subsequent infection and drug cures (IDCs) were administered 2 weeks from the day of last treatment (or 3 weeks between infections). Mice were challenged 4 weeks from the day of last treatment of the last round of IDC (or 5 weeks from last infection).
Blood smears were performed on D1, 2, 4 and 6 post infection during IDC 1, 2 and 3.

P. falciparum 7G8 = assay: Blood stage P. falciparum infection of human volunteers under doxycycline, parasitaemia by qPCR; assay type: in vivo; conditions: two volunteers, 3×10^6 P. falciparum pRBC, 100 mg doxycycline once daily for 21 days
Description: FIG. 13: Persistence of P. falciparum 7G8 in volunteers receiving doxycycline chemoprophylaxis. […] Volunteers received 3×106 pRBCs on D0, followed by doxycycline treatment administered orally (100 mg/day) from D0 to D20.
We have also started human experiments. Initially we have given two volunteers a blood stage infection initiated with 3×10^6 magnet-purified P. falciparum trophozoite-parasitized human red cells (pRBC). At the same time, volunteers were administered 100 mg doxycycline once daily for 21 days, although this could be changed to twice daily. A controlled release form of doxycycline (such as Atridox® comprising doxycycline hyclate) will also be tested.
Parasite concentration is determined whereby the log10 of each known concentration of a standard concentration range is plotted against the quantification cycle of Cq values of the test samples in a linear regression model (y=mx+b) using Biorad CFX manager 2.1 software.

C[C@H]1c2cccc(O)c2C(=O)C2=C(O)[C@]3(O)C(=O)C(C(N)=O)=C(O)[C@@H](N(C)C)[C@@H]3[C@@H](O)[C@@H]21 [doxycycline]
time the infection takes to clear (Plasmodium parasite; 10^5-10^7 pRBC i.v., doxycycline 50 mg/kg i.p. daily for 7 days): approximately 4 days
condition of the mice during the infection (Plasmodium parasite; pRBC i.v. with doxycycline 50 mg/kg i.p. daily for 7 days): remain well
illness of the volunteers (P. falciparum 7G8): did not become ill
